The text below walks through data of patent US4987148A, “Biocidal 4,5-dichloro-1,2-dithiol-3-one composition” (Yoshitomi Pharmaceutical Industries, Ltd., priority 1989, dated 1991).

The conditions of series [1]: cited from earlier work.
For series [2] the following is noted: powdery form; cited from earlier work.
For series [3] the following is noted: cited from earlier work. This is another data set of the same source.
For series [4] the following is noted: cited from earlier work. This is another data set of the same source.
In series [5] the test system is viable microbes in industrial cooling water, washing water, raw water, power water. The note with it: raw water and power water, Kokoku No. 14294/1977; cited from earlier work.
Series [6] is described as follows: Storage and stability test in polyethylene bottle in can at 60° C. (HPLC remaining rate; half life). The format is physicochemical. The conditions noted are these: for Half life of dithiol compound: first order. How it is done: The dithiol compound and N-methyl-2-pyrrolidone were mixed at the concentrations as shown in Table 4 to prepare compositions. Each 50 ml of the compositions was served in a polyethylene bottle, and the bottle was further served tightly in a can with a lid.
The storage and stability tests were conducted by leaving the compositions standing at 60° C. for 11 days (or 15 days) and 30 days in the above state and examining the remaining rate of the dithiol compound based upon the measurement of area ratio at 317 nm by means of high performance liquid chromatography (HPLC).
Since the decomposition rate of the dithiol compound fit to the first order reaction, a half life of the dithiol compound (t 1/2), in the each compositions at 60° C., was calculated with the following equation: […]
wherein α represents a remaining percentage of the dithiol compound, k represents a decomposition rate constant of the dithiol compound and t represents a number of days.

Series [7] is described as follows: Crystallization and redissolution test. The format is physicochemical. On the procedure: In transparent 50 ml-glass vessels, the dithiol compound and N-methyl-2-pyrrolidone were mixed at the prescribed concentrations, and dissolved, if necessary, under heating. The crystals were yielded by cooling these solutions suitably, under the observation of the state. The crystallizing temperature was measured. The crystallized solutions were heated, and the temperature at which the crystals began to dissolve was measured.

Series [8] can be described thus: Solubility test: dithiol compound in 100 g of respective solvents at 25° C. The format is physicochemical. On the procedure:
The solubilities (weight %) of the dithiol compound in 100 g of the respective solvents shown in Table 1 at 25° C. ar indicated in Table 1.

A short description of series [9]: State of compositions (crystallization, solidification, scoopability, stability) in storage and at low temperature. The format is physicochemical. The conditions noted are these: compositions with N-methyl-2-pyrrolidone.
Series [10] in a line: Storage and stability test in transparent glass vessels at 60° C. (50% compositions, HPLC remaining rate). The format is physicochemical. On the procedure: In transparent 50 ml-glass vessels, a 50% N-methyl-2-pyrrolidone composition of the dithiol compound (the composition of the present invention), a 50% dimethylformamide composition containing 5 weight % diethylene glycol monomethyl ether, a 50% N-vinyl-2-pyrrolidone composition and a 50% 2-pyrrolidone composition of the dithiol compound (compositions for comparison) were prepared, and the storage and stability tests were conducted.
The tests were conducted by leaving the compositions standing at 60° C. for 15 days and 30 days and examining the remaining rate of the dithiol compound based upon the measurement of area ratio at 317 nm by means of high performance liquid chromatography (HPLC).

The mark [11] stands for this setting: 10 weight % in N-methyl-2-pyrrolidone.
Where [12] appears, read: 20 weight % in N-methyl-2-pyrrolidone.
The mark [13] stands for this setting: 30 weight % in N-methyl-2-pyrrolidone.
The mark [14] stands for this setting: 40 weight % in N-methyl-2-pyrrolidone.
Setting [15] is: 50 weight % in N-methyl-2-pyrrolidone.
Where [16] appears, read: 60 weight % in N-methyl-2-pyrrolidone.
[17] abbreviates: 70 weight % in N-methyl-2-pyrrolidone.
The mark [18] stands for this setting: 80 weight % in N-methyl-2-pyrrolidone.

Where two headings read alike, the source gives them in different places.

Turning to `CN1CCCC1=O` [N-Methyl-2-pyrrolidone], the “Odor, inflammability, toxicity” value in series [1] (solvent N-Methyl-2-pyrrolidone) is given as “few problems in terms of odor, inflammability, toxicity”.

On to `CN(C)C=O` [dimethylformamide], for which, in series [1] (solvent), the Toxicity result was “inherently so strong in toxicity”.

`O=c1ssc(Cl)c1Cl` [dithiol compound, 4,5-Dichloro-l,2-dithiol-3-one]: the Skin irritancy entry in series [2] is “highly skin-irritant”. Besides, the “Stability in aqueous solution” value in [3] (aqueous solution) was “very unstable in the obtained aqueous solution and susceptible to hydrolysis in a short period of time”. Further, the Solubility in water result in series [3] (water) is given as “below 1%”. The “Storage and stability of the dithiol compound” value in series [4] (diethylene glycol monomethyl ether / dimethylformamide preparations, long period) was “insufficient to storage and stability of the dithiol compound over a long period”. For the same compound, the “Solubility of the dithiol compound” value in series [4] (in 1,2-bis(bromoacetoxy)ethane, U.S. Pat. No. 4647577) was “about 22%”; in [4] (in mixed solvent of diethylene glycol monomethyl ether and dimethylformamide, 25° C., Kokoku No. 23721/1987), “about 67 weight %”. Further, the Slime control result in series [5] is listed as “excellent slime control agent”. In addition, the “Remaining percentage of dithiol compound” value in series [6] (5% in N-methyl-2-pyrrolidone, 15 days) was found to be 70.8%; in series [6] (5% in N-methyl-2-pyrrolidone, 30 days), 58.3%; in series [6] (10% in N-methyl-2-pyrrolidone, 11 days) it was 90.5%; in series [6] (10% in N-methyl-2-pyrrolidone, 30 days) it was 83.2%; in series [6] (15% in N-methyl-2-pyrrolidone, 11 days), 93.7%; in series [6] (15% in N-methyl-2-pyrrolidone, 30 days) it was 87.4%. The “Remaining percentage of dithiol compound” value in [6] (20% in N-methyl-2-pyrrolidone, 11 days) stood at 93.8%; in [6] (20% in N-methyl-2-pyrrolidone, 30 days) it was 88.2%; in [6] (25% in N-methyl-2-pyrrolidone, 11 days) it was 94.3%; in [6] (25% in N-methyl-2-pyrrolidone, 30 days) it was 89.0%; in [6] (30% in N-methyl-2-pyrrolidone, 11 days), 95.6%; in [6] (30% in N-methyl-2-pyrrolidone, 30 days), 88.8%. In addition, the “Remaining percentage of dithiol compound” value amounted to 95.7% in series [6] (35% in N-methyl-2-pyrrolidone, 11 days); 89.3% in series [6] (35% in N-methyl-2-pyrrolidone, 30 days); 96.6% in [6] (40% in N-methyl-2-pyrrolidone, 11 days); 90.4% in series [6] (40% in N-methyl-2-pyrrolidone, 30 days); 97.3% in [6] (50% in N-methyl-2-pyrrolidone, 15 days); 93.3% in [6] (50% in N-methyl-2-pyrrolidone, 30 days). Besides, the “Remaining percentage of dithiol compound” value in series [10] (50% in 2-pyrrolidone, 60° C., 15 days) was found to be 38.9%; in series [10] (50% in 2-pyrrolidone, 60° C., 30 days), 18.0%; in series [10] (50% in Dimethylformamide containing 5 weight % diethylene glycol monomethyl ether, 60° C., 15 days), 94.2%; in series [10] (50% in Dimethylformamide containing 5 weight % diethylene glycol monomethyl ether, 60° C., 30 days), 84.7%; in [10] (50% in N-methyl-2-pyrrolidone, 60° C., 15 days) it was 97.3%; in series [10] (50% in N-methyl-2-pyrrolidone, 60° C., 30 days) it was 93.3%. The “Half life of dithiol compound” value amounted to 39 days in series [6] (5% in N-methyl-2-pyrrolidone); 103 days in series [6] (10% in N-methyl-2-pyrrolidone); 145 days in series [6] (15% in N-methyl-2-pyrrolidone); 153 days in series [6] (20% in N-methyl-2-pyrrolidone); 165 days in series [6] (25% in N-methyl-2-pyrrolidone); 174 days in [6] (30% in N-methyl-2-pyrrolidone). Besides, the “Half life of dithiol compound” value amounted to 181 days in [6] (35% in N-methyl-2-pyrrolidone), 209 days in series [6] (40% in N-methyl-2-pyrrolidone) and 300 days in series [6] (50% in N-methyl-2-pyrrolidone). The Crystallizing temperature was -29.3 °C in [7] (setting [11]); -27.8 °C in [7] (setting [12]); -22.0 °C in series [7] (setting [13]); -18.8 °C in [7] (setting [14]); -18.3 °C in series [7] (setting [15]); -13.3 °C in series [7] (setting [16]). Besides, the Crystallizing temperature in series [7] (setting [17]) stood at 6.0 °C; in [7] (setting [18]) it was 26.8 °C. Moreover, the Crystals-dissolving temperature is -23.7 °C in [7] (setting [11]); -22.7 °C in series [7] (setting [12]); -16.2 °C in [7] (setting [13]); -9.2 °C in series [7] (setting [14]); 4.7 °C in [7] (setting [15]); 12.0 °C in series [7] (setting [16]). For the same compound, the results for the Crystals-dissolving temperature in [7] (setting [17]) and in series [7] (setting [18]) were 26.5 °C and 36.2 °C, respectively. Also, the Solubility in [8] (in 1,2-Bis(bromoacetoxy)ethane) is given as 21.9 weight %; in [8] (in 2-Pyrrolidone) it was 51.0 weight %; in series [8] (in Dimethylformamide containing 5 weight % diethylene glycol monomethyl ether) it was 67.3 weight %; in series [8] (in N-Methyl-2-pyrrolidone), 68.9 weight %; in series [8] (in N-Vinyl-2-pyrrolidone) it was 53.9 weight %. In addition, the “Amount by weight of dissolved dithiol compound” value in [8] (in 100 g 1,2-Bis(bromoacetoxy)ethane) stood at 28 g; in series [8] (in 100 g 2-Pyrrolidone), 104 g; in series [8] (in 100 g Dimethylformamide containing 5 weight % diethylene glycol monomethyl ether) it was 206 g; in series [8] (in 100 g N-Methyl-2-pyrrolidone), 222 g; in [8] (in 100 g N-Vinyl-2-pyrrolidone), 117 g. The “Storage and stability of the effective ingredient” value in series [9] is listed as “extremely high”. Besides, in series [10] (N-Vinyl-2-pyrrolidone composition could not be obtained, in a few minutes after mixing), the “Observation on mixing with N-vinyl-2-pyrrolidone” value is “exothermic polymerization reaction occurred intensively”. Moreover, in series [10] (in N-methyl-2-pyrrolidone, left standing 15 days and 30 days, 60° C.), the “Decomposition of dithiol compound in the composition of the invention” value is “scarcely decomposed”.
